Measurements reported in patent US8048870B2, “Apoptosis-inducing antineoplastic silver (I) coordination complexes” (priority 2005, dated 2011).

What was measured:
[1] = test system: T-47D human breast carcinoma; assay: Cytotoxicity (% inhibition), trypan blue dye exclusion viable cell count, T-47D; assay type: cell-based
Experimental: The chemotherapeutic activities of the silver (I) coordination complex were determined on T-47D human breast carcinoma and Jurkat T-cell acute lymphoblastic leukemia, and compared with cisplatin (Pt(NH3)2Cl2) at 385 μg/mL, corresponding to 250 μg/mL platinum, which is the same concentration used for Ag for the experiments described in Examples 1 and 2, below. The two tumor cell lines were chosen very carefully so as to include solid (T-47D) and disseminated (Jurkat) neoplasia. Cells are plated in a 96-well flat bottom tissue culture plates at 50,000 cells/well. The experiments were conducted by serial dilution.
All cell lines were grown and tested in complete RPMI-1640 medium supplemented with 10% FBS, 40 μg/mL GEN, HEPES buffer of pH=7.2, 2 mM L-glutamine and sodium pyruvate. Plates were incubated in 5% CO2 at 37° C. in a humidified incubator for 24 hrs. Human tumor cells were maintained in the log phase by routine passaging every 2-3 days.
To assess % inhibition of tumor cells, the number of viable cells were counted by trypan blue dye exclusion method on a hemocytometer by microscopy, and adjusted for concentration of cells/mL. Briefly, each well was plated and washed with PBS twice and then harvested with 0.5 mL of Trypsin/EDTA. Cells were diluted with 1 ml of culture media and stained with trypan blue dye.
To examine if there was any interaction between culture medium and test reagents, the test culture was also inoculated with the present reagents without the presence of any of the drugs. […] All experiments were done in triplicates, and the results are averaged and reported.
Regression models were applied to the data to assess the correlation between % inhibition and concentration. Multiple curve estimation procedure was employed, and the relative fit for each model was determined on the basis of the values of the correlation coefficient, r^2; the fit that gives r^2 values closer to 1.0 was selected. The regression equations were then integrated over the concentration intervals for each phase, and their sum was taken as the AUCt>24.

Jurkat cells = assay: DeadEnd Colorimetric TUNEL assay for in-situ apoptosis, Jurkat; assay type: cell-based, human; conditions: 6 hours of incubation
Experimental: (§1) Detection of in-situ apoptosis was performed by the DeadEnd Colorimetric TUNEL (terminal deoxynucleotidyltransferase nick end labeling) assay for the detection of apoptosis in cultured cells as described in Promega kit (Promega Corporation-2800 Woods Hollow Road, Madison, Wis. 53711-5399, USA). Briefly, control and apoptosis-induced cells were centrifuged, washed with PBS, and were fixed on glass slides coated with poly-L-lysine (Sigma-Aldrich). The cells were fixed by immersing the slides in 10% buffered formalin, 4% paraformaldehyde solution for 25 minutes at room temperature. The fixed cells were then washed twice with fresh PBS for 5 minutes at room temperature. The cells were permeabilized by immersing the slides in 0.2% Triton® X-100 solution in PBS for 5 minutes at room temperature. The slides were then rinsed twice with PBS for 5 minutes each at room temperature. The excess liquid was then removed by tapping the slides, and the cells were covered with 100 μL of Equilibration Buffer, and the slides were equilibrated for 8 minutes at room temperature. Then, 100 μL of rTdT reaction mix were added and blotted around the equilibrated areas. The slides were then incubated at 37° C. for an hour inside a humidifier. Then, the reactions were terminated, the slides were washed and 0.3% hydrogen peroxide, and other reagents and washing steps were conducted according to the manufacturer's instructions. The slides were then observed under a light microscope for apoptotic staining. For comparative purposes, apoptotic studies were also performed on cisplatin. […]
(§2) To examine the mode of inherent chemotherapeutic activities of silver (I) complexes, apoptosis was detected by the TUNEL assay for each cell line studies for Phases I, II and III identified above. […] The 18 and 6-hour incubation periods were chosen because it was determined in previous experiments of this work that induction of apoptosis of silver (I) complex was within these times for these two cell lines.

T-47D cells = assay: DeadEnd Colorimetric TUNEL assay for in-situ apoptosis, T-47D; assay type: cell-based, human; conditions: 18 hours of incubation
Experimental: as §1, §2

[2] = patients, i.v. injections; cited from earlier work

| Molecule | calculated AUCt>24 ([1]; Phase I) [cfu·μg/mL] | calculated AUCt>24 ([1]; Phase II) [cfu·μg/mL] | calculated AUCt>24 ([1]; Phase III) [cfu·μg/mL] | average % inhibition ([1]; range of 0.0019-0.0152 μg/mL metal) [%] | apoptotic staining (TUNEL) (Jurkat cells; 0.0076 μg/mL (Phase I)) | apoptotic staining (TUNEL) (Jurkat cells; 3.906 μg/mL (Phase II)) | apoptotic staining (TUNEL) (Jurkat cells; 15.625 μg/mL (Phase III)) | apoptotic staining (TUNEL) (T-47D cells; 0.0076 μg/mL (Phase I)) | apoptotic staining (TUNEL) (T-47D cells; 3.906 μg/mL (Phase II)) | apoptotic staining (TUNEL) (T-47D cells; 15.625 μg/mL (Phase III)) | LOAEL (lowest-observed-adverse-effect level) for argyria [2] [mg/kg/day] |
| --- | --- | --- | --- | --- | --- | --- | --- | --- | --- | --- | --- |
| N.N.[Cl][Pt][Cl] [CIS-Pt, cis-diaminedichloroplatinum (II)] | 0.0 | 2.05 | 107 | 0 | evident | evident | evident | absent | evident | evident | – |
| silver arsphenamine | – | – | – | – | – | – | – | – | – | – | 0.014 |
